Here are results for 5 compounds from BindingDB's records for doi:10.3109/14756360903508430 (University of Karachi, 2010).

By IC50 is commonly meant the concentration that inhibits the measured activity by half. A low value points to greater potency in that assay.

One experiment deals with Cathepsin D (Homo sapiens, UniProt P07339). Put plainly: Fluorescence Resonance Energy Transfer (FRET)-Based Assay. To be noted: pH 5. The procedure:
(§1) The assay was performed with plasmepsin-II/cathepsin D (1.2 nM) and substrate (malaria FRET-1; 1.0 μM) in 0.1 M sodium acetate buffer pH 5, containing 10% glycerol and 0.01% Tween 20. The hydrazide and hydrazine compounds dissolved in DMSO were added in the reaction mixture before the addition of substrate. The assays were performed with 5% final concentration of DMSO. The enzyme inhibition experiments were performed (in triplicates) in 96-well plate format and readings were obtained on a Perkin Elmer LS55 fluorescence spectrometer, Waltham, Massachusetts, with an excitation and emission wavelengths of 336 and 490 nm respectively.

In the next experiment the target is Plasmepsin II (Plasmodium falciparum (isolate HB3), UniProt P46925). The description is as above. To be noted: pH 5. On the procedure: as §1
Sequence of Plasmepsin II (P46925 whole entry): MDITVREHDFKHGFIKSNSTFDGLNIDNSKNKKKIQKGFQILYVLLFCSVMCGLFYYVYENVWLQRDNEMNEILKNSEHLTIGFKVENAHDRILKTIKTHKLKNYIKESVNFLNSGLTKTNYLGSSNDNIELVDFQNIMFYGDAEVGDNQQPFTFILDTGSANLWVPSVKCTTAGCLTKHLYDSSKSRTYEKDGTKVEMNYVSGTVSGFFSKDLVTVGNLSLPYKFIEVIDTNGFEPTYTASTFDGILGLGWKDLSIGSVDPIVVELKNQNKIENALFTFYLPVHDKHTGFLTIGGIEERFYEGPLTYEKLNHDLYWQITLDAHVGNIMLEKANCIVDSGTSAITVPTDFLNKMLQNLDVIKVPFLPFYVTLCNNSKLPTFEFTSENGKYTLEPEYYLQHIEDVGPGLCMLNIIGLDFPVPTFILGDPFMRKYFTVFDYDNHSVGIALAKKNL

Sequence of Cathepsin D (P07339 65-162 limits assumed): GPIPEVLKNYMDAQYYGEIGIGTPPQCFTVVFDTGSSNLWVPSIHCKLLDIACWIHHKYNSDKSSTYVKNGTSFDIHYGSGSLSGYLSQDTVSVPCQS
Sequence of Cathepsin D (P07339 169-412 limits assumed): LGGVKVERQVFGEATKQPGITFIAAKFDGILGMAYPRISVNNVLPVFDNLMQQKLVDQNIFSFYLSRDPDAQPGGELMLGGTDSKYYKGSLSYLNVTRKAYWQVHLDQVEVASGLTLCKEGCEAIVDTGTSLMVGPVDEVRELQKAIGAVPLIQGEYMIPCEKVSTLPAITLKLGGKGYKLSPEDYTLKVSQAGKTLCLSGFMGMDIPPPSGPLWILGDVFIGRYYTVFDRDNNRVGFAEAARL

With `CCCC(=O)NN` [Butanohydrazide], the half-inhibitory concentration (IC50) on Cathepsin D amounted to 1400 nM; on Plasmepsin II it was 1250 nM.

For `NNC(=O)c1ccccc1[N+](=O)[O-]` [2-Nitrobenzohydrazide], the IC50 came out at 1300 nM at Cathepsin D and 1000 nM at Plasmepsin II.

With `c1cc(NNc2ccncc2)ccn1` [1,2-Dipyridinylhydrazine], the IC50 on Cathepsin D is 2500 nM; against Plasmepsin II, 1450 nM.

As to `COc1ccccc1C(=O)NN`, the figures for the IC50 on Cathepsin D and on Plasmepsin II were 1500 nM and 1650 nM, respectively.

In the case of `c1ccc(NNc2ccccc2)cc1` [1,2-Diphenylhydrazine], the IC50 came to 2400 nM against Cathepsin D and 1050 nM against Plasmepsin II.
